Laboratory results reported in patent publication US20080161407A1, “METHODS FOR TREATING METABOLIC SYNDROME” (Abbott Laboratories, priority 2003, published 2008).
Read-outs that look alike come from different tables or passages of the source.

How the values were obtained:
[1] = STORM trial, subjects that had metabolic syndrome at study entry; assay type: in vivo, human; settings: change from baseline to latest assessment after month 6 up to month 12
From the text: (§1) The benefits of sibutramine therapy can be extended to subjects with metabolic syndrome. The treatment effect of sibutramine on subjects that had metabolic syndrome at study entry in the STORM trial and by a pooled analysis of double-blind, placebo-controlled, non-diabetic studies of at least 6 months duration were studied. Subjects were identified who had increased abdominal obesity (waist circumference), decreased HDL cholesterol, and elevated triglycerides (TG) at baseline, and who also completed at least 6 months of sibutramine treatment (pooled analysis subjects: 266 sibutramine, 134 placebo; STORM: 80 sibutramine). Since all subjects in the STORM trial received sibutramine for the first 6 months of the study, only subjects subsequently randomized to receive sibutramine for a longer duration were included. The analyses for each variable were based on change from baseline to latest assessment after month 6, up to and including month 12.

[2] = cited from earlier work
[3] = compared to placebo; cited from earlier work
[4] = Pooled analysis of double-blind, placebo-controlled, non-diabetic studies of at least 6 months in subjects with metabolic syndrome at baseline; assay type: in vivo, human; settings: change from baseline to latest assessment after month 6 up to month 12; compared to placebo
From the text: as §1

[5] = subjects who lost and maintained weight, compared to baseline values of all subjects

What does the source list for `CC(C)CC(N(C)C)C1(c2ccc(Cl)cc2)CCC1` (centres unmarked) [sibutramine, N,N-dimethyl-1-[1-(4-chlorophenyl)cyclobutyl]-3-methylbutylamine]?
HDL [1]: favorable changes; TG [1]: favorable changes; waist circumference [1]: favorable changes; weight loss [1]: favorable changes; subjects who maintained at least 80% of their month six weight loss ([2]; at two years, subjects who completed the trial, placebo 16%): 43%; mean fasting insulin levels ([2]; at two years): reduced; subjects who maintained ≧10% weight reduction ([2]; end of two years of treatment, placebo 21%): 46%; subjects who maintained ≧5% weight reduction ([2]; end of two years of treatment, placebo 44%): 69%; mean weight loss ([2]; first six months of sibutramine treatment): 26 lbs; subjects who achieved a ≧5% weight reduction ([2]; of the 499 subjects who completed the first six months, sibutramine with reduced calorie diet and increased physical activity): 94%; HDL cholesterol [2, 5]: clinically and statistically significant improvements; triglycerides [2, 5]: clinically and statistically significant improvements; waist circumference [2, 5]: clinically and statistically significant improvements; impaired fasting glucose ([2]; subjects who lost and maintained weight): significantly changed; HDL cholesterol [3]: significant improvements; fasting blood glucose levels [3]: not significantly changed; insulin levels [3]: significant improvements; triglyceride levels [3]: significant improvements; waist circumference (a measure for abdominal obesity) [3]: significant improvements; HDL [4]: clinically and statistically significant improvements; TG [4]: clinically and statistically significant improvements; waist circumference [4]: clinically and statistically significant improvements; weight loss [4]: clinically and statistically significant improvements
